# ChEMBL document CHEMBL1154295, “Potent and selective steroidal inhibitors of 17beta-hydroxysteroid dehydrogenase type 7, an enzyme that catalyzes the reduction of the key hormones estrone and dihydrotestosterone” (J Med Chem, 2009)
# Target: T1, 3-keto-steroid reductase/17-beta-hydroxysteroid dehydrogenase 7 (Homo sapiens) (UniProt P56937)
# T1 sequence (whole entry): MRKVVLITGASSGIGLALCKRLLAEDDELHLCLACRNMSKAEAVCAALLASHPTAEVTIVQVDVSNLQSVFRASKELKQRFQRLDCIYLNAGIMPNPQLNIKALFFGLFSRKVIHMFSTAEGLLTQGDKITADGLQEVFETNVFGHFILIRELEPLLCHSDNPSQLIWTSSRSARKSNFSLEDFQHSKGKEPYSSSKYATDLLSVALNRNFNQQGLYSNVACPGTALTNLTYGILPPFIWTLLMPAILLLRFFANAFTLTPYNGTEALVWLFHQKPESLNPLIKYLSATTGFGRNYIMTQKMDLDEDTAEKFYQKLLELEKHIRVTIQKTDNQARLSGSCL
# Settings: HEK293, at 0.3 µM
# Description: Inhibition of human 17beta-HSD7 expressed in HEK293 cells assessed as inhibition of reduction of [14C]estrone into [14C]estradiol at 0.3 uM after 7 hrs
row,SMILES,inhibition [%]
1,CCCCCCCCCCN(C(=O)c1ccc(Cl)cc1)[C@H]1CC[C@H]2[C@@H]3CC[C@H]4N(C)C(=O)CC[C@]4(C)[C@H]3CC[C@]12C,58
2,CCCCCCCCCCN(C(=O)c1ccc(OC)c(C(F)(F)F)c1)[C@H]1CC[C@H]2[C@@H]3CC[C@H]4N(C)C(=O)CC[C@]4(C)[C@H]3CC[C@]12C,46
3,CCCCCCCCCCN(C(=O)c1cccc(CCl)c1)[C@H]1CC[C@H]2[C@@H]3CC[C@H]4N(C)C(=O)CC[C@]4(C)[C@H]3CC[C@]12C,30
4,CCCCCCCCCCCCN(C(=O)c1ccc(Br)cc1)[C@H]1CC[C@H]2[C@@H]3CC[C@H]4N(C)C(=O)CC[C@]4(C)[C@H]3CC[C@]12C,52
5,CCCCCCCCCCN(C(=O)c1ccc(CCCCCCC)cc1)[C@H]1CC[C@H]2[C@@H]3CC[C@H]4N(C)C(=O)CC[C@]4(C)[C@H]3CC[C@]12C,11
6,CCCCCCCN(C(=O)c1c(Cl)cccc1Cl)[C@H]1CC[C@H]2[C@@H]3CC[C@H]4N(C)C(=O)CC[C@]4(C)[C@H]3CC[C@]12C,28
7,CCCCCCCCCCN(C(=O)c1c(Cl)cccc1Cl)[C@H]1CC[C@H]2[C@@H]3CC[C@H]4N(C)C(=O)CC[C@]4(C)[C@H]3CC[C@]12C,36
8,CCCCCCCN(C(=O)c1c(F)cccc1C(F)(F)F)[C@H]1CC[C@H]2[C@@H]3CC[C@H]4N(C)C(=O)CC[C@]4(C)[C@H]3CC[C@]12C,49
9,CCCCCCCc1ccc(C(=O)N(CCCCCCC)[C@H]2CC[C@H]3[C@@H]4CC[C@H]5N(C)C(=O)CC[C@]5(C)[C@H]4CC[C@]23C)cc1,24
10,CCCCCCCCCCN(C(=O)c1ccc(I)cc1)[C@H]1CC[C@H]2[C@@H]3CC[C@H]4N(C)C(=O)CC[C@]4(C)[C@H]3CC[C@]12C,39
11,CCCCCCCN(C(=O)c1c(F)c(F)c(F)c(F)c1F)[C@H]1CC[C@H]2[C@@H]3CC[C@H]4N(C)C(=O)CC[C@]4(C)[C@H]3CC[C@]12C,67
12,CCCCCCCN(C(=O)c1ccc(C#N)cc1)[C@H]1CC[C@H]2[C@@H]3CC[C@H]4N(C)C(=O)CC[C@]4(C)[C@H]3CC[C@]12C,56
13,CCCCCCCN(C(=O)c1ccccc1Cl)[C@H]1CC[C@H]2[C@@H]3CC[C@H]4N(C)C(=O)CC[C@]4(C)[C@H]3CC[C@]12C,37
14,CCCCCCCCCCN(C(=O)c1cc(F)ccc1F)[C@H]1CC[C@H]2[C@@H]3CC[C@H]4N(C)C(=O)CC[C@]4(C)[C@H]3CC[C@]12C,56
15,CCCCCCCCCCCCN(C(=O)c1ccc(F)cc1)[C@H]1CC[C@H]2[C@@H]3CC[C@H]4N(C)C(=O)CC[C@]4(C)[C@H]3CC[C@]12C,47
16,CCCCCCCN(C(=O)c1ccc(OC)c(C(F)(F)F)c1)[C@H]1CC[C@H]2[C@@H]3CC[C@H]4N(C)C(=O)CC[C@]4(C)[C@H]3CC[C@]12C,59
17,CCCCCCCCCCN(C(=O)c1ccc(F)cc1)[C@H]1CC[C@H]2[C@@H]3CC[C@H]4N(C)C(=O)CC[C@]4(C)[C@H]3CC[C@]12C,71
18,CCCCCCCCCCCCN(C(=O)c1ccc(Cl)cc1)[C@H]1CC[C@H]2[C@@H]3CC[C@H]4N(C)C(=O)CC[C@]4(C)[C@H]3CC[C@]12C,40
19,CCCCCCCCCCN(C(=O)c1ccc(C#N)cc1)[C@H]1CC[C@H]2[C@@H]3CC[C@H]4N(C)C(=O)CC[C@]4(C)[C@H]3CC[C@]12C,49
20,CCCCCCCCCCN(C(=O)c1c(F)cccc1C(F)(F)F)[C@H]1CC[C@H]2[C@@H]3CC[C@H]4N(C)C(=O)CC[C@]4(C)[C@H]3CC[C@]12C,19
21,CCCCCCCCCCN(C(=O)c1c(F)cccc1F)[C@H]1CC[C@H]2[C@@H]3CC[C@H]4N(C)C(=O)CC[C@]4(C)[C@H]3CC[C@]12C,77
22,CCCCCCCN(C(=O)c1ccc(CCl)cc1)[C@H]1CC[C@H]2[C@@H]3CC[C@H]4N(C)C(=O)CC[C@]4(C)[C@H]3CC[C@]12C,50
23,CCCCCCCN(C(=O)c1ccc(I)cc1)[C@H]1CC[C@H]2[C@@H]3CC[C@H]4N(C)C(=O)CC[C@]4(C)[C@H]3CC[C@]12C,60
24,CCCCCCCCCCN(C(=O)c1c(F)c(F)c(F)c(F)c1F)[C@H]1CC[C@H]2[C@@H]3CC[C@H]4N(C)C(=O)CC[C@]4(C)[C@H]3CC[C@]12C,28

row,SMILES,inhibition [%]
1,CCCCCCCCCCN(C(=O)c1ccc(Br)cc1)[C@H]1CC[C@H]2[C@@H]3CC[C@H]4N(C)C(=O)CC[C@]4(C)[C@H]3CC[C@]12C,52
2,CCCCCCCN(C(=O)c1cc(F)cc(F)c1)[C@H]1CC[C@H]2[C@@H]3CC[C@H]4N(C)C(=O)CC[C@]4(C)[C@H]3CC[C@]12C,56
3,CCCCCCCN(CC1CCCCC1)[C@H]1CC[C@H]2[C@@H]3CC[C@H]4N(C)C(=O)CC[C@]4(C)[C@H]3CC[C@]12C,45
4,CCCCCCCN(Cc1ccccc1)[C@H]1CC[C@H]2[C@@H]3CC[C@H]4N(C)C(=O)CC[C@]4(C)[C@H]3CC[C@]12C,69
5,CCCCCCCCCCN(C(=O)c1ccc(F)cc1F)[C@H]1CC[C@H]2[C@@H]3CC[C@H]4N(C)C(=O)CC[C@]4(C)[C@H]3CC[C@]12C,80
6,CCCCCCCCCCN(C(=O)c1cc(F)cc(F)c1)[C@H]1CC[C@H]2[C@@H]3CC[C@H]4N(C)C(=O)CC[C@]4(C)[C@H]3CC[C@]12C,38
7,CCCCCCCCCCN(C(=O)c1ccc(C(C)(C)C)cc1)[C@H]1CC[C@H]2[C@@H]3CC[C@H]4N(C)C(=O)CC[C@]4(C)[C@H]3CC[C@]12C,4
8,CCCCCCCCCCCCN(C(=O)c1ccc(C#N)cc1)[C@H]1CC[C@H]2[C@@H]3CC[C@H]4N(C)C(=O)CC[C@]4(C)[C@H]3CC[C@]12C,51
9,CCCCCCCCCCCCN(C(=O)c1ccc(OC)c(C(F)(F)F)c1)[C@H]1CC[C@H]2[C@@H]3CC[C@H]4N(C)C(=O)CC[C@]4(C)[C@H]3CC[C@]12C,51
10,CCCCCCCN(C(=O)c1ccc(C(C)(C)C)cc1)[C@H]1CC[C@H]2[C@@H]3CC[C@H]4N(C)C(=O)CC[C@]4(C)[C@H]3CC[C@]12C,29
11,CCCCCCCCCCCCN(C(=O)c1cccc(CCl)c1)[C@H]1CC[C@H]2[C@@H]3CC[C@H]4N(C)C(=O)CC[C@]4(C)[C@H]3CC[C@]12C,45
12,CCCCCN(C(=O)c1ccc(Br)cc1)[C@H]1CC[C@H]2[C@@H]3CC[C@H]4N(C)C(=O)CC[C@]4(C)[C@H]3CC[C@]12C,63
13,CCCCCCCCCCCCN(C(=O)c1ccccc1Cl)[C@H]1CC[C@H]2[C@@H]3CC[C@H]4N(C)C(=O)CC[C@]4(C)[C@H]3CC[C@]12C,46
14,CCCCCCCN(C(=O)C1CCCCC1)[C@H]1CC[C@H]2[C@@H]3CC[C@H]4N(C)C(=O)CC[C@]4(C)[C@H]3CC[C@]12C,0
15,CCCCCCCN(C(=O)c1cccc(CCl)c1)[C@H]1CC[C@H]2[C@@H]3CC[C@H]4N(C)C(=O)CC[C@]4(C)[C@H]3CC[C@]12C,24
16,CCCCCCCN(C(=O)c1ccccc1)[C@H]1CC[C@H]2[C@@H]3CC[C@H]4N(C)C(=O)CC[C@]4(C)[C@H]3CC[C@]12C,56
17,CCCCCCCCCCN(C(=O)c1ccc(CCl)cc1)[C@H]1CC[C@H]2[C@@H]3CC[C@H]4N(C)C(=O)CC[C@]4(C)[C@H]3CC[C@]12C,37
18,CCCCCCCN(C(=O)c1cc(F)ccc1F)[C@H]1CC[C@H]2[C@@H]3CC[C@H]4N(C)C(=O)CC[C@]4(C)[C@H]3CC[C@]12C,59
19,CCCCCCCCCCCCN(C(=O)c1ccc(CCl)cc1)[C@H]1CC[C@H]2[C@@H]3CC[C@H]4N(C)C(=O)CC[C@]4(C)[C@H]3CC[C@]12C,33
20,CCCCCCCN(C(=O)c1ccc(F)cc1F)[C@H]1CC[C@H]2[C@@H]3CC[C@H]4N(C)C(=O)CC[C@]4(C)[C@H]3CC[C@]12C,73
21,CCCCCCCCCCCCN(C(=O)c1c(Cl)cccc1Cl)[C@H]1CC[C@H]2[C@@H]3CC[C@H]4N(C)C(=O)CC[C@]4(C)[C@H]3CC[C@]12C,18
22,CCCCCCCN(C(=O)c1ccc(Br)cc1)[C@H]1CC[C@H]2[C@@H]3CC[C@H]4N(C)C(=O)CC[C@]4(C)[C@H]3CC[C@]12C,68
23,CCCCCCCN(C(=O)c1ccc(Cl)cc1)[C@H]1CC[C@H]2[C@@H]3CC[C@H]4N(C)C(=O)CC[C@]4(C)[C@H]3CC[C@]12C,65
24,CCCCCCCCCCN(C(=O)c1ccccc1Cl)[C@H]1CC[C@H]2[C@@H]3CC[C@H]4N(C)C(=O)CC[C@]4(C)[C@H]3CC[C@]12C,37

# Target: T1, 3-keto-steroid reductase/17-beta-hydroxysteroid dehydrogenase 7 (Homo sapiens)
# Settings: HEK293, at 3 µM
# Description: Inhibition of human 17beta-HSD7 expressed in HEK293 cells assessed as inhibition of reduction of [14C]estrone into [14C]estradiol at 3 uM after 7 hrs
row,SMILES,inhibition [%]
1,C[C@]12CC[C@H]3C(=CCc4cc(O)ccc43)[C@@H]1CCC2=O,0
2,C[C@]12CC[C@H]3[C@@H](CCC4=CC(=O)CC[C@@]43C)[C@@H]1CC[C@@H]2O,7.5
3,C[C@]12CCC(=O)C[C@@H]1CC[C@@H]1[C@@H]2CC[C@@]2(C)[C@H]1CC[C@]2(O)C(=O)CO,13.4
4,C[C@]12CC=C3c4ccc(O)cc4CC[C@H]3[C@@H]1CCC2=O,24
5,CC(C)(O)C(=O)Nc1ccc([N+](=O)[O-])c(C(F)(F)F)c1,8.2
6,CC(=O)[C@@]1(O)CC[C@H]2[C@@H]3CC=C4C[C@@H](O)CC[C@]4(C)[C@H]3CC[C@@]21C,4.1
7,C[C@]12C=CC(=O)C=C1CC[C@@H]1[C@@H]2CC[C@]2(C)C(=O)CC[C@@H]12,21.3
8,C[C@]12CC[C@@H]3c4ccc(O)cc4CC[C@H]3[C@@H]1CCC2=O,10.1
9,CC1(C)CC[C@@]2(CC[C@H]3[C@@H]4CCc5ccccc5[C@H]4CC[C@@]32C)OC1=O,18.6
10,C[C@]12CC[C@@H](O)C[C@@H]1CC[C@@H]1[C@@H]2CC[C@]2(C)C(=O)CC[C@@H]12,2.2
11,C[C@]12CC[C@H](O)C=C1CC[C@@H]1[C@@H]2CC[C@]2(C)C(=O)CC[C@@H]12,12.2
12,C[C@]12CC[C@H](O)C[C@@H]1CC[C@@H]1[C@@H]2CC[C@]2(C)[C@@H](O)CC[C@@H]12,4.5
13,CCC(=C(c1ccc(O)cc1)c1ccc(OCCN(C)C)cc1)c1ccccc1,3
